Data set [1] concerns methicillin-resistant Staphylococcus aureus ATCC 43300.
The subject of data set [2] is Staphylococcus aureus ATCC 6538.
Data set [3] has as its system Staphylococcus aureus ATCC 12600.
The subject of data set [4] is Bacillus pumilus CMCC 63202.
The test system of data set [5] is MRSA (ATCC 43300). The settings on record: chessboard with APC, MRSA ATCC 43300, 18 h; synergy defined as FIC index ≤ 0.5.
Data set [6] has as its system Escherichia coli CMCC 44817.
The subject of data set [7] is Staphylococcus aureus ATCC 29213.
The test system of data set [8] is Shigalla Dysenteria CMCC 51252. The settings on record: CMCC 51252, 18 h.
Data set [9] concerns Bacillus cereus CMCC 63301.
Data set [10] has as its system Salmonella enterica CMCC 50335. As to conditions: MHB, 37 °C, 18 h. The procedure:
(§1) The minimum inhibitory concentration (MIC) was adopted to measure the antimicrobial spectrum of AMPs[42]. Specifically, experiments were executed by broth microdilution method in a 96-well plate (Corning) with an initial inoculum of 1.5 × 10^6 Colony-Forming units (CFU) mL^−1 in MHB based on Clinical and Laboratory Standards Institute (CLSI) guidelines. Inoculums were bacteria in the Mid-Logarithmic phase. To prevent edge effects, 96-well plates were placed in a constant temperature incubator (TSQ-280, Jianuo, China) at 37 °C. After 18 h of incubation, a microplate reader (SpectraMax i3, Molecular Devices, USA) was applied to determine the OD600 value of the plates. […] Simultaneously, the number of inactivated bacteria treated with different drugs was quantitatively determined by flow cytometry (BD Accuri C6 Plus, USA) combined with […] propidium iodide (PI, Thermo Fisher Scientific, USA)[43].

For data set [11], the system named is Shigella flexneri CMCC 51572. The settings on record: MHB, 37 °C, 18 h. The procedure:
as §1

For data set [12], the system named is Shigella sonnei CMCC 51592. As to conditions: MHB, 37 °C, 18 h. The procedure:
as §1

For data set [13], the system named is Shigella flexneri CMCC 51571. The settings on record: MHB, 37 °C, 18 h. The protocol:
as §1

The test system of data set [14] is Escherichia coli ATCC 8739.
For data set [15], the system named is Escherichia coli CMCC44102.
The subject of data set [16] is Staphylococcus aureus CMCC 26003.
The test system of the next data set is mouse blood cells. It is filed as cell-based, mice. The protocol: Blood cells taken from mice (ICR, male, 30–35 g) were treated with different concentrations of AMPs for 1 h. Meanwhile, Triton X-100 (0.2%) and phosphate-buffered saline (PBS, 0.01 moL^−1, pH 7.4) were used as positive and negative controls, respectively. After the reaction was completed, the OD576 value of each tube sample was determined and the hemolysis rate was calculated using the formula below[44],[45]:1 Hemolysisrate(%)=[(OD576sample−OD576blank)/(OD576TritonX−100−OD576blank)]×100%

Data set [17] concerns pepsin, papain, and trypsin. It is filed as in vitro ADME. The settings on record: pH 7.4. The procedure:
AMPs were exposed to proteases (including pepsin, papain, and trypsin) dissolved in PBS (pH 7.4) at 37 °C for 12 h. Subsequently, proteases in AMPs were inactivated by high-temperature treatment (95 °C, 5 min) and the activity of treated AMPs against MRSA (ATCC 43300) was determined. AMPs dissolved in PBS without proteases were used as controls.

The subject of data set [18] is methicillin-resistant Staphylococcus aureus ATCC 43300. The data set is described as follows: microbe, parasite or virus in culture. As to conditions: ATCC43300 / MRSA, 18 h.
For data set [19], the system named is MRSA (ATCC 43300). The data set is described as follows: Killing kinetics / growth inhibition. It is filed as cell-based, Staphylococcus aureus. The settings on record: PIS-A-1 1/4 MIC or APC 1/8 MIC alone; OD600, 37 °C. The procedure: Likewise, the killing kinetics of antimicrobial agents against bacteria was tested. Briefly, 100 μL of antimicrobial agents were diluted two-fold in 96-well plates. Then, 100 μL of bacterial inoculum (1.5 × 10^6 CFU mL^−1) was appended and incubated at 37 °C. At a fixed time, the OD600 value of each well in the plate was measured by using a microplate reader (SpectraMax i3, Molecular Devices, USA).

A further data set concerns Caco-2 cells. Description: Cytotoxicity, MTT assay. As to conditions: Caco-2, MTT; 64 μg/mL (concentration for PIS-1 and PIS-3 implied by context); mean ± SD, n = 3. The procedure:
Caco-2 cells cultured with RPMI 1640 medium (containing 10% FBS and 1% penicillin-streptomycin) were incubated in a humidified CO2 (5%) atmosphere. Next, trypsin-treated cells (0.25%) were seeded in 96-well plates at a density of 5,000 per well and incubated for 24 h. Finally, cell viability of each well with fresh medium was tested by MTT assay.
Background: Tetrazolium dyes change colour on reduction, which living cells bring about.

This note sets out measurements from PMC9744894, “An optimized antimicrobial peptide analog acts as an antibiotic adjuvant to reverse methicillin-resistant Staphylococcus aureus” (NPJ Science of Food, 2022).

Converted amounts (≈) assume the structure as drawn. Where two headings read alike, the source gives them in different places. No end group written: not given here.

The compound FIHHIFRGIVHVGRSIG [PIS-A-3] gave an MIC in data set [1] (ATCC 43300, 18 h) of 32 µg/mL.

Consider GIVHAGRSIGRFLTG [PIS-A-7], for which the MIC in data set [1] (ATCC 43300, 18 h) was at least 64 µg/mL.

Consider “FFHHIFRGIVHVGKTIHRLVTG [PIS-1] [listing 1 of 2 here]”, for which the MIC in data set [2] (Staphylococcus aureus ATCC 6538, MHB, 37 °C, 18 h) was determined as 8 µg/mL; in data set [3] (Staphylococcus aureus ATCC 12600, MHB, 37 °C, 18 h), 8 µg/mL; in [1] (MRSA ATCC 43300, broth microdilution in MHB, 1.5 × 10^6 CFU mL^−1, 37 °C, 18 h, OD600), 16 µg/mL; in data set [4] (Bacillus pumilus CMCC 63202, MHB, 37 °C, 18 h) it was 16 µg/mL; in the data set with MRSA N315 (MRSA N315, MHB, 37 °C, 18 h) it was 8 µg/mL; in data set [6] (Escherichia coli CMCC 44817, MHB, 37 °C, 18 h) it was 16 µg/mL. Further, the MIC in [7] (Staphylococcus aureus ATCC 29213, MHB, 37 °C, 18 h) came out at 8 µg/mL; in [8], 16 µg/mL; in data set [9] (Bacillus cereus CMCC 63301, MHB, 37 °C, 18 h), 16 µg/mL; in [10], 16 µg/mL; in data set [11] it was 8 µg/mL; in data set [12] it was 8 µg/mL. The MIC is 8 µg/mL in data set [13]; 8 µg/mL in [14] (Escherichia coli ATCC 8739, first listing in Supplementary table 1, MHB, 37 °C, 18 h); 8 µg/mL in data set [14] (Escherichia coli ATCC 8739, second listing in Supplementary table 1, MHB, 37 °C, 18 h); 16 µg/mL in data set [15] (Escherichia coli CMCC44102, first listing in Supplementary table 1, MHB, 37 °C, 18 h); 4 µg/mL in data set [15] (Escherichia coli CMCC 44102, second listing in Supplementary table 1, MHB, 37 °C, 18 h); 16 µg/mL in [16] (Staphylococcus aureus CMCC 26003, MHB, 37 °C, 18 h). In the data set on MRSA (ATCC 43300) [5], the “FIC (FIC index) with APC” value came out at 0.31. Also, the “MIC against Staphylococcus aureus” value with Staphylococcus aureus (range over Staphylococcus aureus strains) is 8~16 μg/mL.

In data set [1] (ATCC 43300, 18 h), FIHHIFRGIVHVGRS [PIS-A-4] had an MIC of 32 µg/mL.

For FIHHIFRGIVHVGRSIGRFLTG [PIS-A-1], the MIC in data set [2] (ATCC 6538, 18 h) was 8 µg/mL; in data set [3] (ATCC 12600, 18 h), 8 µg/mL; in [1] (ATCC 43300, 18 h), 8 µg/mL; in data set [4] (CMCC 63202, 18 h), 16 µg/mL; against MRSA N315 (N315, 18 h), 8 µg/mL; in data set [6] (CMCC 44817, 18 h), 16 µg/mL. Moreover, the MIC worked out at 8 µg/mL in [7] (ATCC 29213, 18 h); 16 µg/mL in data set [8]; 8 µg/mL in data set [9] (CMCC 63301, 18 h); 16 µg/mL in data set [10]; 16 µg/mL in data set [11]; 16 µg/mL in data set [12]. Moreover, the MIC in [13] came to 8 µg/mL; in [14] (ATCC 8739, 18 h), 8 µg/mL; in data set [16] (CMCC 26003, 18 h), 16 µg/mL. For the same compound, in the data set with MRSA (ATCC 43300) [5], the “FIC (FIC index) with APC” value came out at 0.19. Moreover, the “hemolysis at its MIC” value with mouse blood cells was “did not induce minimal hemolysis”. The “HC50 (minimum AMP concentration producing 50% hemolysis of red blood cells)” value with mouse blood cells (red cells of mouse, 1 h) worked out at 64 µg/mL. Besides, the “MIC against Staphylococcus aureus” value against Staphylococcus aureus (18 h) is 8~16 μg/mL. Besides, the “resistance to enzymatic degradation (change of MIC against MRSA after protease treatment)” value in data set [17] was “least affected by enzymatic degradation”.

Regarding GIVHAG [PIS-A-6], the MIC in data set [1] (ATCC 43300, 18 h) was at least 64 µg/mL.

As for FIHHIFRGIVHLGRSIGRFLTG [PIS-A-2], in data set [1] (ATCC 43300, 18 h), the MIC stood at 16 µg/mL.

`CC1(C)S[C@@H]2[C@H](NC(=O)[C@H](N)c3ccccc3)C(=O)N2[C@H]1C(=O)O` [APC, Ampicillin] displayed an MIC in [18] of 16 µg/mL (≈ 45.8 µM). Further, the “bactericidal activity in growth inhibition experiment, applied separately” value with MRSA (ATCC 43300) [19] is “no bactericidal activity”.

FIHHIFRGIVHAGRSIGRFLTG [PIS-3]: the MIC in data set [2] (ATCC 6538, 18 h) amounted to 16 µg/mL; in data set [3] (ATCC 12600, 18 h) it was 16 µg/mL; in data set [1] (ATCC 43300, 18 h) it was 32 µg/mL; in data set [4] (CMCC 63202, 18 h) it was 16 µg/mL; with MRSA N315 (N315, 18 h), 16 µg/mL; in data set [6] (CMCC 44817, 18 h), 16 µg/mL. In addition, the MIC in [7] (ATCC 29213, 18 h) amounted to 16 µg/mL; in data set [8] it was 32 µg/mL; in data set [9] (CMCC 63301, 18 h) it was 16 µg/mL; in data set [14] (ATCC 8739, 18 h), 8 µg/mL; in data set [15] (CMCC44102, 18 h) it was 16 µg/mL; in data set [16] (CMCC 26003, 18 h), 32 µg/mL.

FIHHIFRGIVHAG [PIS-A-5] showed an MIC in data set [1] (ATCC 43300, 18 h) of at least 64 µg/mL.

A word on the cell viability: it is a per cent measure of how many cells are alive, often set against a control. Read a high cell viability as better survival. In the data set on Caco-2 cells, “FFHHIFRGIVHVGKTIHRLVTG [PIS-1] [listing 2 of 2 here]” had a cell viability of 3.64 ± 0.79%.

Compound `CN[C@H](CC(C)C)C(=O)N[C@H]1C(=O)N[C@@H](CC(N)=O)C(=O)N[C@H]2C(=O)N[C@H]3C(=O)N[C@H](C(=O)N[C@H](C(=O)O)c4cc(O)cc(O)c4-c4cc3ccc4O)[C@H](O)c3ccc(c(Cl)c3)Oc3cc2cc(c3O[C@@H]2O[C@H](CO)[C@@H](O)[C@H](O)[C@H]2O[C@H]2C[C@](C)(N)[C@H](O)[C@H](C)O2)Oc2ccc(cc2Cl)[C@H]1O` [VAN, vancomycin] showed an MIC in data set [18] of 0.25 µg/mL (≈ 0.173 µM).
